Here are results for 15 compounds from patent US9957264B2 (Merck Sharp & Dohme Corp., priority 2013, dated 2018).

The target in assay [1] is JAK1 (recombinant purified GST-tagged catalytic domain) (Homo sapiens (Human), UniProt P23458). Description: Jak Biochemical HTRF Assay (JAK1). The following applies: [ATP] 31.8 μM. In a few lines:
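Compounds in DMSO were pre-equilibrated with enzyme and biotinylated peptide, then ATP was added and the reaction proceeded 120 min at room temperature. EDTA-based stop buffer with detection reagents was added, and after 60 min the time-resolved FRET ratio was read. IC50s came from 4-parameter dose–response fits.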
In general terms: In TR-FRET formats the signal depends on donor and acceptor labels being close together.

Assay [2] concerns the target JAK2 (recombinant purified GST-tagged catalytic domain) (Homo sapiens (Human), UniProt O60674). Description: Jak Biochemical HTRF Assay (JAK2). The following applies: [ATP] 8.5 μM.

Chain of JAK2 (recombinant purified GST-tagged catalytic domain) (O60674 849-1124): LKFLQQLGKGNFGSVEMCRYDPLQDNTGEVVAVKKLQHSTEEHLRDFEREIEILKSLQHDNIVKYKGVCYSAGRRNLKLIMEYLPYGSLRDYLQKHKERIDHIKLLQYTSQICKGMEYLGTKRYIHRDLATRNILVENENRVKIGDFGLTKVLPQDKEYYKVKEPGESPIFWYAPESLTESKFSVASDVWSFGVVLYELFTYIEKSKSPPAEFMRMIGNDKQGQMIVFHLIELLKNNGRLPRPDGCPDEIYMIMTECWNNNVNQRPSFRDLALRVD
Chain of JAK1 (recombinant purified GST-tagged catalytic domain) (P23458 875-1153): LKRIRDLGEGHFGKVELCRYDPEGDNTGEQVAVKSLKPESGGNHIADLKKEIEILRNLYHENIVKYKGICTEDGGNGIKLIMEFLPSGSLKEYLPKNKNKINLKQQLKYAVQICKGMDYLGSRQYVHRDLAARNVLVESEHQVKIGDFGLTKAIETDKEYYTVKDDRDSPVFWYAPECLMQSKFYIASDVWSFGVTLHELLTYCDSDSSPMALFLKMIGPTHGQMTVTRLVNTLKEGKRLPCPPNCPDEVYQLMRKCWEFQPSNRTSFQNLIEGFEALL

As a reminder, the IC50 is the concentration at which inhibition is half-maximal. Consider `CC(C)(C)OC(=O)[C@H]1CC[C@@](CC#N)(n2nc(Nc3ccc([C@@H](N)C(F)(F)F)cc3)c3c(=O)[nH]ccc32)CO1` (single isomer, unassigned) [Example 5-50, (2R,5S)-tert-butyl 5-(3-((4-((R or S)-1-amino-2,2,2-trifluoroethyl)phenyl)amino)-4-oxo-4,5-dihydro-1H-pyrazolo[4,3-c]pyridin-1-yl)-5-(cyanomethyl) tetrahydro-2H-pyran-2-carboxylate], for which the values for the IC50 in assay [1] and in assay [2] were 11.8 nM and 34.5 nM, respectively.
For `COC(=O)[C@H]1CC[C@](CC#N)(n2nc(Nc3ccc(S(C)(=O)=O)cc3)c3c(=O)[nH]ccc32)CO1` (single isomer, unassigned) [Example 5-34, (2S,5S or 2R,5R)-methyl 5-(cyanomethyl)-5-(3-((4-(methylsulfonyl)phenyl)amino)-4-oxo-4,5-dihydro-1H-pyrazolo[4,3-c]pyridin-1-yl)tetrahydro-2H-pyran-2-carboxylate], the values for the IC50 in assay [1] and in assay [2] were 4.74 nM and 22.6 nM, respectively.
The like results for `Cc1cc(Nc2nn([C@@]3(CC#N)CCN(C(=O)OC(C)(C)C)C[C@H]3F)c3cc[nH]c(=O)c23)ccc1C(=O)N1CCSCC1` [Example 5-279, (3R,4R)-tert-butyl 4-(cyanomethyl)-3-fluoro-4-(3-((3-methyl-4-(thiomorpholine-4-carbonyl)phenyl)amino)-4-oxo-4,5-dihydro-1H-pyrazolo[4,3-c]pyridin-1-yl)piperidine-1-carboxylate] were, in that order, 0.18 nM and 0.12 nM.
On the same counts, the results for `CC(C)(C)OC(=O)N1CCC(CC#N)(n2nc(NCC3CC3)c3c(=O)[nH]ccc32)CC1` [Example 2-2, tert-butyl 4-(cyanomethyl)-4-{3-[(cyclopropylmethyl)amino]-4-oxo-4,5-dihydro-1H-pyrazolo[4,3-c]pyridin-1-yl}piperidine-1-carboxylate] are 49.9 nM and 39.8 nM.
On the same counts, the results for `CC(C)(C)OC(=O)N1CC[C@@](CC#N)(n2nc(Nc3ccc(S(C)(=O)=O)cc3)c3c(=O)[nH]ccc32)[C@H](F)C1` (single isomer, unassigned) [Example 5-15, tert-butyl (3R,4S or 3S,4R)-4-(cyanomethyl)-3-fluoro-4-(3-{[4-(methylsulfonyl)phenyl]amino}-4-oxo-4,5-dihydro-1H-pyrazolo[4,3-c]pyridin-1-yl)piperidine-1-carboxylate] are 0.27 nM and 3.45 nM.
Take `CC(C)(O)[C@@H]1CC[C@@](CC#N)(n2nc(Nc3ccc(Cl)cc3)c3c(=O)[nH]ccc32)CO1` [Example 24, 2-((3S,6S)-3-(3-((4-chlorophenyl)amino)-4-oxo-4,5-dihydro-1H-pyrazolo[4,3-c]pyridin-1-yl)-6-(2-hydroxypropan-2-yl)tetrahydro-2H-pyran-3-yl)acetonitrile]: the IC50 in assay [1] turned out to be 0.34 nM; in assay [2] it was 1.13 nM.
The like results for `CC(C)(C)S(=O)(=O)c1ccc(Nc2nn([C@]3(CC#N)CCOC3)c3cc[nH]c(=O)c23)cc1` (single isomer, unassigned) [Example 5-250, (R or S)-2-(3-(3-((4-(tert-butylsulfonyl)phenyl)amino)-4-oxo-4,5-dihydro-1H-pyrazolo[4,3-c]pyridin-1-yl)tetrahydrofuran-3-yl)acetonitrile] were, in that order, 4.34 nM and 12.1 nM.
The like results for `CC(C)OC(=O)C(C)(C)C(O)(c1ccc(Nc2nn([C@]3(CC#N)CC[C@@H](C(=O)OC(C)(C)C)OC3)c3cc[nH]c(=O)c23)cc1)C(F)(F)F` (single isomer, unassigned) [Example 5-162, (2S,5S)-tert-butyl 5-(cyanomethyl)-5-(4-oxo-3-((4-((S or R)-1,1,1-trifluoro-2-hydroxy-4-isopropoxy-3,3-dimethyl-4-oxobutan-2-yl)phenyl)amino)-4,5-dihydro-1H-pyrazolo[4,3-c]pyridin-1-yl)tetrahydro-2H-pyran-2-carboxylate] were, in that order, 2.76 nM and 12.9 nM.
The like results for `CC(C)(C)OC(=O)N1CCC(CC#N)(n2nc(Nc3ccc4c(c3)CNC4)c3c(=O)[nH]ccc32)CC1` [Example 5-66, tert-butyl 4-(cyanomethyl)-4-(3-(isoindolin-5-ylamino)-4-oxo-4,5-dihydropyrazolo[4,3-c]pyridin-1-yl)piperidine-1-carboxylate] were, in that order, 0.26 nM and 0.43 nM.
On to `CC(C)(C)OC(=O)[C@@H]1CC[C@](CC#N)(n2nc(Nc3ccc(S(C)(=O)=O)cc3)c3c(=O)[nH]ccc32)CO1` (single isomer, unassigned) [Example 5-37, (2R,5S or 2S,5R)-tert-butyl 5-(cyanomethyl)-5-(3-((4-(methylsulfonyl)phenyl)amino)-4-oxo-4,5-dihydro-1H-pyrazolo[4,3-c]pyridin-1-yl)tetrahydro-2H-pyran-2-carboxylate], for which the results for the IC50 in assay [1] and in assay [2] were 1.93 nM and 17.1 nM, respectively.
The like results for `CC(C)(C)OC(=O)N1CCC(CC#N)(n2nc(Nc3ccc([C@@H](O)C(F)(F)F)cc3)c3c(=O)[nH]ccc32)CC1` (single isomer, unassigned) [Example 5-3, tert-butyl 4-(cyanomethyl)-4-[4-oxo-3-({4-[(1R or 1S)-2,2,2-trifluoro-1-hydroxyethyl]phenyl}amino)-4,5-dihydro-1H-pyrazolo[4,3-c]pyridin-1-yl]piperidine-1-carboxylate] were, in that order, 0.43 nM and 1.11 nM.
The like results for `N#CCC1(n2nc(Nc3ccc4c(c3)COC4=O)c3c(=O)[nH]ccc32)CCCC1` [Example 5-125, 2-(1-(4-oxo-3-((1-oxo-1,3-dihydroisobenzofuran-5-yl)amino)-4,5-dihydro-1H-pyrazolo[4,3-c]pyridin-1-yl)cyclopentyl)acetonitrile] were, in that order, 0.27 nM and 2.71 nM.
The like results for `CC(F)(F)C(=O)N1CCC(CC#N)(n2nc(Nc3ccc(S(C)(=O)=O)cc3)c3c(=O)[nH]ccc32)CC1` [Example 17, 2-(1-(2,2-difluoropropanoyl)-4-(3-((4-(methylsulfonyl)phenyl)amino)-4-oxo-4,5-dihydro-1H-pyrazolo[4,3-c]pyridin-1-yl)piperidin-4-yl)acetonitrile] were, in that order, 0.1 nM and 0.24 nM.
For `N#CC[C@]1(n2nc(Nc3ccc(C(N)C(F)(F)F)cc3)c3c(=O)[nH]ccc32)CCCC[C@H]1F` (single isomer, unassigned) [Example 5-176, {(1R,2R)-1-[3-({4-[(1R or 1S)-1-amino-2,2,2-trifluoroethyl]phenyl}amino)-4-oxo-4,5-dihydro-1H-pyrazolo [4,3-c]pyridin-1-yl]-2-fluorocyclohexyl} acetonitrile], the results for the IC50 in assay [1] and in assay [2] were 0.05 nM and 0.09 nM, respectively.
The like results for `CN(C)S(=O)(=O)c1ccc(Nc2nn(C3(CC#N)CCN(C(=O)CCc4ccccc4)CC3)c3cc[nH]c(=O)c23)cc1` [Example 9-17, 4-({1-[4-(cyanomethyl)-1-(3-phenylpropanoyl)piperidin-4-yl]-4-oxo-4,5-dihydro-1H-pyrazolo[4,3-c]pyridin-3-yl}amino)-N,N-dimethylbenzenesulfonamide] were, in that order, 0.15 nM and 0.7 nM.
